# Source: the supplement of paper PMC10307832
# What was measured:
# Experiment in all cases: relative viability (nuclei count vs DMSO), 5 days (fraction); higher = more cells survive
# HCC-78 = system: HCC-78
# Summary of the method: (§1)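 One day after seeding in 1536-well plates, lung cancer cell lines were dosed by pin tool. Dosing was either single-drug or a fixed anchor-drug dose plus five library-drug doses (not always all listed) in √10 steps. After 5 days, nuclei were stained in one fix-and-stain step and counted on 4× images, and relative viability is the nuclei count of treated wells over that of vehicle wells, given as the median of duplicate plates.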
# EBC-1 = system: EBC-1
# Summary of the method: as §1
# NCI-H1975 = system: NCI-H1975
# Summary of the method: as §1
# NCI-H1703 = system: NCI-H1703
# Summary of the method: as §1
# NCI-H1650 = system: NCI-H1650
# Summary of the method: as §1
# A549 = system: A549
# Summary of the method: as §1
# NCI-H1734 = system: NCI-H1734
# Summary of the method: as §1
# IA-LM = system: IA-LM
# Summary of the method: as §1
# LXF-289 = system: LXF-289
# Summary of the method: as §1
# 201T = system: 201T
# Summary of the method: as §1
# Calu-6 = system: Calu-6
# Summary of the method: as §1
# NCI-H1299 = system: NCI-H1299
# Summary of the method: as §1
# HARA = system: HARA
# Summary of the method: as §1
smiles,measurement,setting,value
COCC1(CO)C(=O)C2CCN1CC2 (stereo not drawn) [PRIMA-1MET] + CS(=O)(=O)CCNCc1ccc(-c2ccc3ncnc(Nc4ccc(OCc5cccc(F)c5)c(Cl)c4)c3c2)o1 [Lapatinib] (partner 2 µM),relative viability,HCC-78; first compound 0.2 µM,0.984
same,relative viability,HCC-78; first compound 0.6325 µM,0.539
same,relative viability,HCC-78; first compound 6.325 µM,0.78
same,relative viability,HCC-78; first compound 20 µM,0.686
same,relative viability,EBC-1; first compound 0.2 µM,0.22
same,relative viability,EBC-1; first compound 0.6325 µM,0.214
same,relative viability,EBC-1; first compound 2 µM,0.203
same,relative viability,EBC-1; first compound 6.325 µM,0.216
same,relative viability,EBC-1; first compound 20 µM,0.201
same,relative viability,NCI-H1975; first compound 0.2 µM,0.988
same,relative viability,NCI-H1975; first compound 0.6325 µM,0.786
same,relative viability,NCI-H1975; first compound 2 µM,0.774
same,relative viability,NCI-H1975; first compound 6.325 µM,0.947
same,relative viability,NCI-H1975; first compound 20 µM,0.816
same,relative viability,NCI-H1703; first compound 0.2 µM,1.25
same,relative viability,NCI-H1703; first compound 0.6325 µM,0.834
same,relative viability,NCI-H1703; first compound 2 µM,1.01
same,relative viability,NCI-H1703; first compound 6.325 µM,1.04
same,relative viability,NCI-H1703; first compound 20 µM,0.145
same,relative viability,NCI-H1650; first compound 0.2 µM,0.84
same,relative viability,NCI-H1650; first compound 0.6325 µM,0.378
same,relative viability,NCI-H1650; first compound 2 µM,0.426
same,relative viability,NCI-H1650; first compound 6.325 µM,0.647
same,relative viability,NCI-H1650; first compound 20 µM,0.81
same,relative viability,A549; first compound 0.2 µM,1.07
same,relative viability,A549; first compound 0.6325 µM,0.977
same,relative viability,A549; first compound 2 µM,1.05
same,relative viability,A549; first compound 6.325 µM,1.01
same,relative viability,A549; first compound 20 µM,0.943
same,relative viability,NCI-H1734; first compound 0.2 µM,1.43
same,relative viability,NCI-H1734; first compound 0.6325 µM,0.98
same,relative viability,NCI-H1734; first compound 2 µM,0.857
same,relative viability,NCI-H1734; first compound 6.325 µM,1.07
same,relative viability,NCI-H1734; first compound 20 µM,0.591
same,relative viability,IA-LM; first compound 0.2 µM,0.686
same,relative viability,IA-LM; first compound 0.6325 µM,0.746
same,relative viability,IA-LM; first compound 2 µM,0.724
same,relative viability,IA-LM; first compound 6.325 µM,0.73
same,relative viability,IA-LM; first compound 20 µM,0.637
same,relative viability,LXF-289; first compound 0.2 µM,0.878
same,relative viability,LXF-289; first compound 0.6325 µM,0.879
same,relative viability,LXF-289; first compound 2 µM,0.979
same,relative viability,LXF-289; first compound 6.325 µM,0.923
same,relative viability,LXF-289; first compound 20 µM,0.836
same,relative viability,201T; first compound 0.2 µM,1.15
same,relative viability,201T; first compound 0.6325 µM,0.695
same,relative viability,201T; first compound 2 µM,0.834
same,relative viability,201T; first compound 6.325 µM,1.07
same,relative viability,201T; first compound 20 µM,1.01
same,relative viability,Calu-6; first compound 0.2 µM,1.14
same,relative viability,Calu-6; first compound 0.6325 µM,1.08
same,relative viability,Calu-6; first compound 2 µM,1.11
same,relative viability,Calu-6; first compound 6.325 µM,1.01
same,relative viability,Calu-6; first compound 20 µM,0.847
same,relative viability,NCI-H1299; first compound 0.2 µM,0.977
same,relative viability,NCI-H1299; first compound 0.6325 µM,0.996
same,relative viability,NCI-H1299; first compound 2 µM,0.969
same,relative viability,NCI-H1299; first compound 6.325 µM,0.99
same,relative viability,NCI-H1299; first compound 20 µM,0.947
same,relative viability,HARA; first compound 0.2 µM,0.782
same,relative viability,HARA; first compound 0.6325 µM,0.649
same,relative viability,HARA; first compound 6.325 µM,0.804
same,relative viability,HARA; first compound 20 µM,0.706
